Data on three molecules can be found in ChEMBL document CHEMBL2169878 (J Med Chem, 2012).

For series [1], the system named is Salmonella typhimurium. In words: Mutagenicity against Salmonella typhimurium TA98 assessed as revertants at 40 uM incubated for 90 mins followed by drug washout measured after 2 days relative to positive control. It is filed as toxicity, organism-based. The following applies: salmonella enterica subsp. enterica serovar typhimurium.
For series [2], the system named is Salmonella typhimurium. As to the kind of experiment: Mutagenicity against Salmonella typhimurium TA98 assessed as revertants at 15 uM incubated for 90 mins followed by drug washout measured after 2 days relative to positive control. The class given is toxicity, organism-based. Conditions: salmonella enterica subsp. enterica serovar typhimurium.
Series [3] deals with Plasmodium berghei. As to the kind of experiment: Antimalarial activity against Plasmodium berghei ANKA expressing GFP infected in mouse assessed as mean survival days at 100 mg/kg, po administered 24 hrs post-infection (reference value: 6 to 7 days). The class given is functional.
Series [4] has as its target T1, Chloroquine resistance transporter (Plasmodium falciparum) (UniProt Q9N623).
T1 sequence (whole entry): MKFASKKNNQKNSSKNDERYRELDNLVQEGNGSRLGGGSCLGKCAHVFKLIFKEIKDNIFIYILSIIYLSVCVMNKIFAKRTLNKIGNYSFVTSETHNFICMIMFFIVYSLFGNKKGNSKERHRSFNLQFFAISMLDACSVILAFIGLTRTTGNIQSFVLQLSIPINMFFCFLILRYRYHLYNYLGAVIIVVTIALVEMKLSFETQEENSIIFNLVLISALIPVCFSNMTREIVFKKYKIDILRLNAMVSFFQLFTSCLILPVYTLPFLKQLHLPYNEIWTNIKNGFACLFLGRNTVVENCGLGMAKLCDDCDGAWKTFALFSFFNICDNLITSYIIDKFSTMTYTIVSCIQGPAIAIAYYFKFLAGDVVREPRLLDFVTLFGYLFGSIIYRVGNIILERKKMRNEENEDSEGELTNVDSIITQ
In words: Inhibition of chloroquine-resistant Plasmodium falciparum Dd2 CRT expressed in Xenopus laevis oocyte assessed as inhibition of [3H]chloroquine uptake at 100 uM measured from 1 to 2 hrs.

Series [5] has as its system Plasmodium falciparum. In words: Antiplasmodial activity against chloroquine-resistant Plasmodium falciparum W2 infected in human RBC after 72 hrs by parasite lactate dehydrogenase assay. The class given is functional, organism-based. The following applies: W2, 72 h.
In series [6] the test system is Plasmodium berghei. As to the kind of experiment: Antimalarial activity against Plasmodium berghei ANKA expressing GFP infected in mouse assessed as reduction in parasitemia at 30 mg/kg, po administered 24 hrs post-infection measured 48 hrs post-dosing by flow cytometric analysis. More on the design: scale not given: the % may be the effect or the level left. It is filed as functional. In general terms: In flow cytometry, cells or beads pass a laser one at a time.

In series [7] the test system is Plasmodium berghei. As to the kind of experiment: Antimalarial activity against Plasmodium berghei ANKA expressing GFP infected in mouse assessed as cure from infection at 100 mg/kg, po administered 24 hrs post-infection measured on day 30. The class given is functional, organism-based. Also on record: dose 100 mg/kg.
In series [8] the test system is Plasmodium falciparum. As to the kind of experiment: Antiplasmodial activity against chloroquine-resistant Plasmodium falciparum K1 infected in human erythrocytes assessed as inhibition of [3H]hypoxanthine incorporation incubated for 48 hrs prior to [3H]hypoxanthine addition measured after 48 hrs by liquid scintillation counting. The class given is functional, organism-based.

The subject of series [9] is Salmonella typhimurium. In words: Mutagenicity against Salmonella typhimurium TA100 assessed as revertants at 7 uM incubated for 90 mins followed by drug washout measured after 2 days relative to positive control. Conditions: salmonella enterica subsp. enterica serovar typhimurium, 1.5 h. It is filed as toxicity, organism-based.
Series [10] deals with Salmonella typhimurium. In words: Mutagenicity against Salmonella typhimurium TA98 assessed as revertants at 80 uM incubated for 90 mins followed by drug washout measured after 2 days relative to positive control. It is filed as toxicity, organism-based. The following applies: salmonella enterica subsp. enterica serovar typhimurium, 1.5 h.
Series [11] concerns Plasmodium falciparum. As to the kind of experiment: Antiplasmodial activity against chloroquine-sensitive Plasmodium falciparum NF54 infected in human erythrocytes assessed as inhibition of [3H]hypoxanthine incorporation incubated for 48 hrs prior to [3H]hypoxanthine addition measured after 48 hrs by liquid scintillation counting. The class given is functional, organism-based.

The test system of series [12] is Salmonella typhimurium. In words: Mutagenicity against Salmonella typhimurium TA100 assessed as revertants at 80 uM incubated for 90 mins followed by drug washout measured after 2 days relative to positive control. The class given is toxicity, organism-based. The following applies: salmonella enterica subsp. enterica serovar typhimurium.
Series [13] deals with Salmonella typhimurium. As to the kind of experiment: Mutagenicity against Salmonella typhimurium TA98 assessed as revertants at 61 uM incubated for 90 mins followed by drug washout measured after 2 days relative to positive control. It is filed as toxicity, organism-based. Conditions: salmonella enterica subsp. enterica serovar typhimurium, 1.5 h.
Series [14] is described as follows: Cytotoxicity against human HepG2 cells after 24 hrs by neutral red dye uptake assay. It is filed as cell-based. The following applies: read-out: TC50.
Series [15] is described as follows: Cytotoxicity against mouse NIH3T3 cells after 24 hrs by neutral red dye uptake assay. It is filed as cell-based. The following applies: read-out: TC50.
Series [16] relates to Salmonella typhimurium. As to the kind of experiment: Mutagenicity against Salmonella typhimurium TA100 assessed as revertants at 61 uM incubated for 90 mins followed by drug washout measured after 2 days relative to positive control. Conditions: salmonella enterica subsp. enterica serovar typhimurium. It is filed as toxicity, organism-based.
The test system of series [17] is Salmonella typhimurium. As to the kind of experiment: Mutagenicity against Salmonella typhimurium TA100 assessed as revertants at 40 uM incubated for 90 mins followed by drug washout measured after 2 days relative to positive control. It is filed as toxicity, organism-based. The following applies: salmonella enterica subsp. enterica serovar typhimurium.
Series [18] deals with Plasmodium berghei. In words: Antimalarial activity against Plasmodium berghei ANKA expressing GFP infected in mouse assessed as reduction in parasitemia at 100 mg/kg, po administered 24 hrs post-infection measured 48 hrs post-dosing by flow cytometric analysis. The class given is functional. Also on record: scale not given: the % may be the effect or the level left.
In series [19] the test system is Salmonella typhimurium. In words: Mutagenicity against Salmonella typhimurium TA100 assessed as revertants at 15 uM incubated for 90 mins followed by drug washout measured after 2 days relative to positive control. It is filed as toxicity, organism-based. Conditions: salmonella enterica subsp. enterica serovar typhimurium.
For series [20], the system named is Plasmodium falciparum. As to the kind of experiment: Antiplasmodial activity against chloroquine-sensitive Plasmodium falciparum D10 infected in human RBC after 72 hrs by parasite lactate dehydrogenase assay. The class given is functional, organism-based. The following applies: D10, 72 h.
The test system of series [21] is Salmonella typhimurium. As to the kind of experiment: Mutagenicity against Salmonella typhimurium TA98 assessed as revertants at 7 uM incubated for 90 mins followed by drug washout measured after 2 days relative to positive control. The class given is toxicity, organism-based. The following applies: salmonella enterica subsp. enterica serovar typhimurium.
For series [22], the system named is Plasmodium berghei. In words: Antimalarial activity against Plasmodium berghei ANKA expressing GFP infected in mouse assessed as cure from infection at 30 mg/kg, po administered 24 hrs post-infection measured on day 30. It is filed as functional, organism-based. More on the design: dose 30 mg/kg.
Series [23] relates to Salmonella typhimurium. As to the kind of experiment: Mutagenicity against Salmonella typhimurium TA98 assessed as revertants at 24 uM incubated for 90 mins followed by drug washout measured after 2 days relative to positive control. The class given is toxicity, organism-based. Conditions: salmonella enterica subsp. enterica serovar typhimurium, 1.5 h.
In series [24] the test system is Salmonella typhimurium. In words: Mutagenicity against Salmonella typhimurium TA100 assessed as revertants at 24 uM incubated for 90 mins followed by drug washout measured after 2 days relative to positive control. Conditions: salmonella enterica subsp. enterica serovar typhimurium. The class given is toxicity, organism-based.
Series [25] has as its system Plasmodium berghei. As to the kind of experiment: Antimalarial activity against Plasmodium berghei ANKA expressing GFP infected in mouse assessed as mean survival days at 30 mg/kg, po administered 24 hrs post-infection (reference value: 6 to 7 days). The class given is functional.
The test system of series [26] is Salmonella typhimurium. In words: Mutagenicity against Salmonella typhimurium TA100 assessed as revertants at 2 uM incubated for 90 mins followed by drug washout measured after 2 days relative to positive control. Conditions: salmonella enterica subsp. enterica serovar typhimurium. The class given is toxicity, organism-based.
Series [27] deals with Salmonella typhimurium. In words: Mutagenicity against Salmonella typhimurium TA100 assessed as revertants at 16 uM incubated for 90 mins followed by drug washout measured after 2 days relative to positive control. It is filed as toxicity, organism-based. Conditions: salmonella enterica subsp. enterica serovar typhimurium.
Series [28] has as its system Salmonella typhimurium. In words: Mutagenicity against Salmonella typhimurium TA98 assessed as revertants at 2 uM incubated for 90 mins followed by drug washout measured after 2 days relative to positive control. Conditions: salmonella enterica subsp. enterica serovar typhimurium, 1.5 h. It is filed as toxicity, organism-based.
Series [29] deals with Salmonella typhimurium. In words: Mutagenicity against Salmonella typhimurium TA98 assessed as revertants at 4 uM incubated for 90 mins followed by drug washout measured after 2 days relative to positive control. It is filed as toxicity, organism-based. Conditions: salmonella enterica subsp. enterica serovar typhimurium.
The subject of series [30] is Salmonella typhimurium. As to the kind of experiment: Mutagenicity against Salmonella typhimurium TA100 assessed as revertants at 4 uM incubated for 90 mins followed by drug washout measured after 2 days relative to positive control. Conditions: salmonella enterica subsp. enterica serovar typhimurium, 1.5 h. The class given is toxicity, organism-based.
Series [31] concerns Salmonella typhimurium. In words: Mutagenicity against Salmonella typhimurium TA98 assessed as revertants at 16 uM incubated for 90 mins followed by drug washout measured after 2 days relative to positive control. The class given is toxicity, organism-based. Conditions: salmonella enterica subsp. enterica serovar typhimurium.
Series [32] has as its system Plasmodium falciparum. As to the kind of experiment: Resistance ratio of IC50 for chloroquine-resistant Plasmodium falciparum K1 to IC50 for chloroquine-sensitive Plasmodium falciparum NF54. The class given is functional.
Series [33] relates to Plasmodium falciparum. In words: Resistance ratio of IC50 for chloroquine-resistant Plasmodium falciparum W2 to IC50 for chloroquine-sensitive Plasmodium falciparum D10. The class given is functional.

Calls of active or inactive are those of the source. No cut-off for these calls is given here.

For orientation: inhibition means how much of the control response was suppressed. One may read the IC50 as the concentration at which inhibition is half-maximal. On to `Clc1ccc2c(NC(c3ccccc3)(c3ccc(CN4CCCC4)c(Cl)c3)c3ccc(CN4CCCC4)c(Cl)c3)ccnc2c1`, for which the Activity in the series with Salmonella typhimurium [1] came out at 3%; with Salmonella typhimurium [2] it was 1%; in the series on Plasmodium berghei [6] it was 99.4%; with Salmonella typhimurium [9], 4%; in the series on Salmonella typhimurium [10], 0%; with Salmonella typhimurium [12], 0%. The Activity was found to be 5% in the series on Salmonella typhimurium [13]; 4% with Salmonella typhimurium [16]; 4% in the series with Salmonella typhimurium [17]; 99.3% in the series with Plasmodium berghei [18]; 5% in the series with Salmonella typhimurium [19]; 1% in the series on Salmonella typhimurium [21]. Further, the Activity in the series on Salmonella typhimurium [23] is on record as 5%; in the series on Salmonella typhimurium [24], 6%. Besides, the results for the MSD with Plasmodium berghei [3] and in the series on Plasmodium berghei [25] were 21.3 days and 7 days, respectively. Moreover, the inhibition in series [4] is 72%. For the same molecule, the 50% inhibitory concentration (IC50) turned out to be 52 nM with Plasmodium falciparum [5], 8.4 nM in the series with Plasmodium falciparum [8], 9.5 nM in the series on Plasmodium falciparum [11] and 26 nM in the series on Plasmodium falciparum [20]. Besides, the result in the series on Plasmodium berghei [7] and in the series on Plasmodium berghei [22] was inactive. The CC50 at 24 h amounted to 6100 nM in series [14] and 15000 nM in [15].
`Clc1ccc(C(Nc2ccnc3cc(Cl)ccc23)c2ccc(CN3CCCC3)c(Cl)c2)cc1` (racemic): the Activity with Salmonella typhimurium [1] is 10%; in the series on Salmonella typhimurium [26], 4%; in the series on Salmonella typhimurium [27], 1%; in the series on Plasmodium berghei [6], 99.4%; in the series with Salmonella typhimurium [28], 17%; with Salmonella typhimurium [10], 0%. Further, the Activity is 1% in the series with Salmonella typhimurium [12]; 8% with Salmonella typhimurium [17]; 0% in the series with Salmonella typhimurium [29]; 99.5% with Plasmodium berghei [18]; 3% in the series with Salmonella typhimurium [30]; 10% in the series with Salmonella typhimurium [23]. In addition, the figures for the Activity with Salmonella typhimurium [24] and in the series on Salmonella typhimurium [31] were 4% and 3%, respectively. In addition, the MSD in the series with Plasmodium berghei [3] came to 14 days; with Plasmodium berghei [25], 7.7 days. In addition, the inhibition in series [4] turned out to be 70%. The IC50 in the series on Plasmodium falciparum [5] was 28 nM; with Plasmodium falciparum [20], 8.4 nM. The result in the series with Plasmodium berghei [7] and in the series with Plasmodium berghei [22] was inactive. In addition, the CC50 at 24 h was found to be 4000 nM in series [14] and 16000 nM in series [15].
With `COc1ccc2nccc(NC(c3ccc(Cl)cc3)c3ccc(CN4CCNCC4)cc3)c2c1` (racemic), the IC50 in the series on Plasmodium falciparum [5] is 163 nM; in the series with Plasmodium falciparum [8] it was 58 nM; in the series on Plasmodium falciparum [11] it was 21 nM; with Plasmodium falciparum [20], 67 nM. Further, the “Ratio IC50” value in the series with Plasmodium falciparum [32] came to 2.8; in the series on Plasmodium falciparum [33], 2.4.
